Assay results: patent US20190105337A1, “METHODS OF TREATING BACTERIAL INFECTIONS” (priority 2015, published 2019)

How the values were obtained:
[1] = human, in vivo
Experimental: Forty one subjects were enrolled in 5 groups based on their degree of renal insufficiency. The five cohorts included: patients with normal renal function (CrCl≥90 ml/min), mild renal impairment (CrCl 60-89 ml/min), moderate renal impairment (CrCl 30-<60 ml/min), severe renal impairment (CrCl<30 ml/min, and patients with end stage renal disease requiring hemodialysis. Patients on renal replacement therapy other than standard hemodialysis (including continuous veno-venous hemofiltration, continuous veno-venous hemodialysis and continuous renal replacement therapy) were not studied.

clinical [2] = settings: human, in vivo; for clearance: Plasma Clearance; for Vd: Vss
Experimental: The combination of both drugs was administered on day 7. All drugs were infused over 3 hours. Plasma and urine samples were obtained and assayed using validated HPLC/MS methods.

clinical [3] = settings: human, in vivo; for clearance: Plasma Clearance; for Vd: Vss; remark: listed apart in the source
Experimental: All infusions were administered over 3 hours. Intensive plasma and urine PK sampling was obtained after dosing and assayed using validated HPLC/MS methods.

[4] = In vitro hollow fiber model: pharmacokinetic parameters of meropenem and Compound I in the central compartment (Tables E, F); settings: combination Compound I/meropenem (Table F)
Experimental: In Vitro PK-PD Model: Six medium sized hollow-fiber cartridges (FiberCell Systems) were used per experiment. Three strains studied in duplicate were used for each experiment. Log-phase cells were inoculated and incubated for 2 hours prior to the start of treatment to achieve about 10^8 CFU/mL. Target PK parameters are listed in Tables E and F. The exposures were based on the published literatures disclosed in Example 2. Samples were collected from the central compartment for the determination of drug concentrations over a 32 hour period and were analyzed using an LC-MS/MS method.

Plasma protein binding = format: in vitro ADME
[5] = Example 6: noncompartmental plasma pharmacokinetics after third dose of the Combination (2 g meropenem/2 g Compound I q8h); settings: for Vss / clearance / Cmax / Tmax: Compound I 2 g q8h; for AUC(0-t) / clearance / Cmax / Tmax / half-life: both, human, plasma, intravenous; for AUC(0-t): AUC0-8, Compound I 2 g q8h; for clearance: CL; for half-life: t1/2, Compound I 2 g q8h
Experimental: A total of twenty-five (n=25) male and female subjects who met the study entry criteria and completed all phases of the pharmacokinetic study were included in this pharmacokinetic analysis. […] Blood samples were collected to measure drug concentrations in plasma prior to (time 0), and at 1.5, 2.95, 3.083, 3.25, 3.5, 4, 6, and 8 hours after the start of a 3-hour intravenous infusion of the third combination dose.
(Reports MC14B-0013, MC14B-0015, MC14I-011, and MC14I-0012). The urea concentrations in plasma and BAL were performed with a microplate-based method with an 0-phthalaldehyde chromogenic solution at MicroConstants, Inc., San Diego, Calif.
Peak plasma concentration (Cmax) and time to Cmax (Tmax) were read from the observed plasma concentration-time profile after the start of the intravenous infusion of the third Combination dose. Area under the plasma concentration-time curve over 8 hours (AUC0-8) after the third dose was calculated with the linear-log trapezoidal rule (WinNonlin®, version 6.3, Pharsight Corporation, Cary, N.C.). The elimination rate constant (β) was determined by nonlinear least-squares regression. Elimination half-life (t½) was calculated by dividing β into the natural logarithm of two.

- non-renal clearance [1]: no measurable non-renal clearance
- AUC(0-inf) (clinical [2]; 250 mg): 17.5 µg·h/mL
- Cmax (clinical [2]; 250 mg): 5200 ng/mL
- half-life (clinical [2]; 250 mg): 1.18 h
- clearance (clinical [2]; 250 mg): 245 mL/min
- Vd (clinical [2]; 250 mg): 23.1 L
- AUC(0-inf) (clinical [2]; 1000 mg): 77.6 µg·h/mL
- Cmax (clinical [2]; 1000 mg): 22000 ng/mL
- half-life (clinical [2]; 1000 mg): 1.56 h
- clearance (clinical [2]; 1000 mg): 222 mL/min
- Vd (clinical [2]; 1000 mg): 21.4 L
- AUC(0-inf) (clinical [2]; 1500 mg): 124 µg·h/mL
- Cmax (clinical [2]; 1500 mg): 37200 ng/mL
- half-life (clinical [2]; 1500 mg): 1.21 h
- clearance (clinical [2]; 1500 mg): 206 mL/min
- Vd (clinical [2]; 1500 mg): 19.4 L
- AUC(0-inf) (clinical [3]; 250 mg): 17.5 µg·h/mL
- Cmax (clinical [3]; 250 mg): 5200 ng/mL
- half-life (clinical [3]; 250 mg): 1.18 h
- clearance (clinical [3]; 250 mg): 245 mL/min
- Vd (clinical [3]; 250 mg): 23.1 L
- AUC(0-inf) (clinical [3]; 1000 mg): 77.6 µg·h/mL
- Cmax (clinical [3]; 1000 mg): 22000 ng/mL
- half-life (clinical [3]; 1000 mg): 1.56 h
- clearance (clinical [3]; 1000 mg): 222 mL/min
- Vd (clinical [3]; 1000 mg): 21.4 L
- AUC(0-inf) (clinical [3]; 1500 mg): 124 µg·h/mL
- Cmax (clinical [3]; 1500 mg): 37200 ng/mL
- half-life (clinical [3]; 1500 mg): 1.21 h
- clearance (clinical [3]; 1500 mg): 206 mL/min
- Vd (clinical [3]; 1500 mg): 19.4 L
- AUC, Average Compound I Actual [4]: 105.3 µg·h/mL
- Cmax, Average Compound I Actual [4]: 26400 ng/mL
- Half-Life, Average Compound I Actual [4]: 1.5 h
- fraction unbound (Plasma protein binding): 0.67
- Vss ([5]; 1.5-hour BAL Sampling Group): 18.6 ± 2.3 L
- Vss ([5]; 3.25-hour BAL Sampling Group): 17.3 ± 2.3 L
- Vss ([5]; 4-hour BAL Sampling Group): 16.9 ± 0.9 L
- Vss ([5]; 6-hour BAL Sampling Group): 18.1 ± 3.9 L
- Vss ([5]; 8-hour BAL Sampling Group): 17.0 ± 3.3 L
- Vss ([5]; All Subjects): 17.6 ± 2.6 L
- AUC(0-t) ([5]; 1.5-hour BAL Sampling Group): 184 ± 38.6 µg·h/mL
- AUC(0-t) ([5]; 3.25-hour BAL Sampling Group): 210 ± 32.2 µg·h/mL
- AUC(0-t) ([5]; 4-hour BAL Sampling Group): 214 ± 35.4 µg·h/mL
- AUC(0-t) ([5]; 6-hour BAL Sampling Group): 216 ± 33.7 µg·h/mL
- AUC(0-t) ([5]; 8-hour BAL Sampling Group): 198 ± 36.6 µg·h/mL
- AUC(0-t) ([5]; All Subjects): 204 ± 34.6 µg·h/mL
- clearance ([5]; 1.5-hour BAL Sampling Group): 188 mL/min
- clearance ([5]; 3.25-hour BAL Sampling Group): 162 mL/min
- clearance ([5]; 4-hour BAL Sampling Group): 158 mL/min
- clearance ([5]; 6-hour BAL Sampling Group): 158 mL/min
- clearance ([5]; All Subjects): 168 mL/min
- Cmax ([5]; 1.5-hour BAL Sampling Group): 56100 ± 13000 ng/mL
- Cmax ([5]; 3.25-hour BAL Sampling Group): 59700 ± 5800 ng/mL
- Cmax ([5]; 4-hour BAL Sampling Group): 60100 ± 5700 ng/mL
- Cmax ([5]; 6-hour BAL Sampling Group): 60900 ± 9700 ng/mL
- Cmax ([5]; 8-hour BAL Sampling Group): 57900 ± 8800 ng/mL
- Cmax ([5]; All Subjects): 59000 ± 8400 ng/mL
- Tmax ([5]; 1.5-hour BAL Sampling Group): 2.95 ± 0.01 h
- Tmax ([5]; 3.25-hour BAL Sampling Group): 3 ± 0.07 h
- Tmax ([5]; 4-hour BAL Sampling Group): 2.98 ± 0.06 h
- Tmax ([5]; 6-hour BAL Sampling Group): 3 ± 0.07 h
- Tmax ([5]; 8-hour BAL Sampling Group): 2.98 ± 0.06 h
- Tmax ([5]; All Subjects): 2.98 ± 0.06 h
- half-life ([5]; 1.5-hour BAL Sampling Group): 1.18 ± 0.08 h
- half-life ([5]; 3.25-hour BAL Sampling Group): 1.26 ± 0.23 h
- half-life ([5]; 4-hour BAL Sampling Group): 1.34 ± 0.26 h
- half-life ([5]; 6-hour BAL Sampling Group): 1.37 ± 0.27 h
- half-life ([5]; 8-hour BAL Sampling Group): 1.18 ± 0.16 h
- half-life ([5]; All Subjects): 1.27 ± 0.21 h
Compound: O=C(O)C[C@@H]1CC[C@H](NC(=O)Cc2cccs2)B(O)O1 [Compound I]
